Reference: patent US20080287398A1, “COLD MENTHOL RECEPTOR-1 ANTAGONISTS” (priority 2007, published 2008)
Like-named read-outs stand apart in the source and are kept apart here.

Columns and labels:
Male Sprague Dawley rats = assay: Inhibition of icilin-induced wet-dog shakes in rats; type: in vivo; settings: rat, 15′ pre icilin
Sprague-Dawley rats = assay: CFA-induced paw radiant heat hypersensitivity; type: in vivo, rat; settings: po, rat; for inhibition in vivo at 30 mg/kg: 30 mg/kg p.o., read-out: % Reversal
Experimental: Intraplantar injection of Complete Freund's Adjuvant (CFA) in rodents results in a long-lasting inflammatory reaction, characterized by a pronounced hypersensitivity to both thermal and mechanical stimuli. This hypersensitivity peaks between 24-72 hours following injection and can last for several weeks. […] This paradigm also may be conducted with a multiple dosing or a prophylactic dosing regime designed to alter the course of hyperalgesia development. This test predicts the analgesic, anti-allodynic and antihyperalgesic effect of numerous effective clinical agents, including NSAIDS such as acetaminophen, aspirin and ibuprofen, and opioids such as morphine.
Each rat was placed in a test chamber on a warm glass surface and allowed to acclimate for approximately 10 minutes. A radiant thermal stimulus (beam of light) was then focused through the glass onto the plantar surface of each hind paw in turn. The thermal stimulus was automatically shut off by a photoelectric relay when the paw was moved or when the cut-off time was reached (20 seconds for radiant heat at ˜5 Amps). An initial (baseline) response latency to the thermal stimulus was recorded for each animal prior to the injection of CFA. Twenty-four hours following intraplantar CFA injection, the response latency of the animal to the thermal stimulus was then re-evaluated and compared to the animal's baseline response time. […] Immediately following the post-CFA latency assessment, test compound or vehicle (usually Solutol, hydroxypropyl methylcellulose, hydroxypropyl beta-cyclodextrin or PEG-400) was administered i.p. or p.o. to rats. […] The percent reversal (% R) of hypersenstivitiy was calculated according to the following formula:
% Reversal=(Treatment Response-CFA Response)/(Baseline Response-CFA Response)×100.

rat TRPM8 = target: T1, rat TRPM8 (Rattus norvegicus, UniProt Q8R455); assay: In vitro rat TRPM8 functional assay (Ca2+ dye, FDSS, 100 nM icilin); type: cell-based; settings: HEK293 cells transiently transfected with rat TRPM8, read-out: rTRPM8 IC50
T1 construct: the full-length cDNAs encoding human and rat TRPM8 were subcloned; expressed in transfected cells; host or cells: HEK293 (transient, FuGENE 6, pCI-NEO vector)
T1 sequence (Q8R455 whole entry): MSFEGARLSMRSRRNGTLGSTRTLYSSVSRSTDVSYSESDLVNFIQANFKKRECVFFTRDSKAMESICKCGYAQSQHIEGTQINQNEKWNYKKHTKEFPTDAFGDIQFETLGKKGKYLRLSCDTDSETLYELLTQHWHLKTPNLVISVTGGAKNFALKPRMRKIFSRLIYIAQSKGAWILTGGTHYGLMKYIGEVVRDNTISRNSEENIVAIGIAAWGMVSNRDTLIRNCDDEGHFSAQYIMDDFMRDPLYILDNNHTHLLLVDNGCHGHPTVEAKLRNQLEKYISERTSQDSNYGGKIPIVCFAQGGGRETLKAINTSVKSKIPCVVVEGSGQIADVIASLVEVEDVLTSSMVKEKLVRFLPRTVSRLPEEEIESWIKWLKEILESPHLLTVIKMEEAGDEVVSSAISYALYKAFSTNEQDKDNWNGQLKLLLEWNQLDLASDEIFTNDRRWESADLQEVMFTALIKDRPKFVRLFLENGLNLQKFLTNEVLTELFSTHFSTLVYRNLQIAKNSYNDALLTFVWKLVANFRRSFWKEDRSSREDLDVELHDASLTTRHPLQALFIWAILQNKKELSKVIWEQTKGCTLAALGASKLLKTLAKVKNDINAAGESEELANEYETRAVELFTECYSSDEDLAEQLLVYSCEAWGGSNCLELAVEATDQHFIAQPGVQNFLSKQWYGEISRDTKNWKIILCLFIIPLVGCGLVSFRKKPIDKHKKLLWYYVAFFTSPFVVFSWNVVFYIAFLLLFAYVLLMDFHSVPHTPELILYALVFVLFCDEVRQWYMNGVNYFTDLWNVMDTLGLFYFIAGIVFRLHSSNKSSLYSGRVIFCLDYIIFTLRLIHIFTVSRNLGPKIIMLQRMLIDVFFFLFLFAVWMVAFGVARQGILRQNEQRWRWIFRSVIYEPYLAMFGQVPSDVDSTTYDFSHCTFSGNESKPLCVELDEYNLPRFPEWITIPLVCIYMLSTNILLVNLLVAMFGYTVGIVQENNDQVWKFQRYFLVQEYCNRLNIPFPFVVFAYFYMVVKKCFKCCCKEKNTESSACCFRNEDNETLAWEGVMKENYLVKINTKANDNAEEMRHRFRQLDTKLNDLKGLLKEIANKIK
Experimental: (§1) For functional expression of TRPM8, the full-length cDNAs encoding human and rat TRPM8 were subcloned into pCl-NEO mammalian expression vectors. The expression constructs were transiently transfected into HEK293 cells according to the FuGENE 6 transfection reagent® (ROCHE) instructions. HEK293 cells were routinely grown as monolayers in Dulbecco's minimum essential medium supplemented with 10% FBS, 1 mM L-glutamine, 100 units/mL penicillin and 100 ug/mL streptomycin. Cells were maintained in 5% CO2 at 37° C. […] Following incubation, plates were inserted into a FDSS instrument, where cells were challenged with a compound of Formula (I) (at varying concentrations) and intracellular Ca^2+ was measured for 5 min prior to the addition of 100 nM icilin. IC50 values for compounds of the present invention were determined from eight-point dose-response studies
(§2) Maximal fluorescence intensity (FI) achieved upon addition of icilin was exported from the FDSS and further analyzed using GraphPad Prism 3.02 (Graph Pad Software Inc., CA, U.S.A.). […] The dose response curves from the average of quadruplicate wells for each data point were analyzed by using nonlinear regression of either sigmoidal dose response or sigmoidal dose response (variable slope). Finally, the IC50 values were calculated with the best-fit dose curve determined by Prism.

human TRPM8 = target: T2, human TRPM8 (Homo sapiens, UniProt Q7Z2W7); assay: In vitro human TRPM8 functional assay (Ca2+ dye, FDSS, 100 nM icilin); type: cell-based; settings: HEK293 cells transiently transfected with human TRPM8, read-out: hTRPM8 IC50
T2 construct: the full-length cDNAs encoding human and rat TRPM8 were subcloned; expressed in transfected cells; host or cells: HEK293 (transient, FuGENE 6, pCI-NEO vector)
T2 sequence (Q7Z2W7 whole entry): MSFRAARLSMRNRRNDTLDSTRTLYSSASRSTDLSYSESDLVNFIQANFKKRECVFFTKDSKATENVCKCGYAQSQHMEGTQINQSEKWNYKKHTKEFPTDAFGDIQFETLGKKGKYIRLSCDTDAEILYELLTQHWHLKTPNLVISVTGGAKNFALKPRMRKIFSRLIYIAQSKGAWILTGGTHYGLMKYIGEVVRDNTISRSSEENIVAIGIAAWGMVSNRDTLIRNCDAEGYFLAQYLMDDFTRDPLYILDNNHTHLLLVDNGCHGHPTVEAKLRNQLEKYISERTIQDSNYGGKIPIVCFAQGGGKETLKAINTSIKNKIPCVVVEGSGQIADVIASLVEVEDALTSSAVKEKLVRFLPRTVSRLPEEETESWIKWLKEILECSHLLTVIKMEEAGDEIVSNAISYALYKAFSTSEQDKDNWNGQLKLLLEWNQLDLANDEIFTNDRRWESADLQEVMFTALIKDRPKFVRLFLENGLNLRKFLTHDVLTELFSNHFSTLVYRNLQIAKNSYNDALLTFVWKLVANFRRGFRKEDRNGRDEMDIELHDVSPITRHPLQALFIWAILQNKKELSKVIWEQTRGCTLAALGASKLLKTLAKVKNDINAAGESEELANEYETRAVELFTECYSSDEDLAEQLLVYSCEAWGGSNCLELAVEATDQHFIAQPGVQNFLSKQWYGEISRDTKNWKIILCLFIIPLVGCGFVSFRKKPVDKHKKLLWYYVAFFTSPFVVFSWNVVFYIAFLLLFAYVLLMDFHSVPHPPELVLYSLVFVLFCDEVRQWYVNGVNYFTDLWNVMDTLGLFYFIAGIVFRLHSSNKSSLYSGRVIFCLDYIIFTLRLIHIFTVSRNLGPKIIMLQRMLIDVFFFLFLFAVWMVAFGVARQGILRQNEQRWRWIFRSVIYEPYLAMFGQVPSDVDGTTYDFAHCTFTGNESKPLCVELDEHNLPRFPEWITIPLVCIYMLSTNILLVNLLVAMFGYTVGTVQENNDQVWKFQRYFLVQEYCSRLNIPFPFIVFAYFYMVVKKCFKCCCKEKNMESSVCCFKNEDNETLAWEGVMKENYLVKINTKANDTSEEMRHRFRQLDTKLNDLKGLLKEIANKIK
Experimental: as §1, §2

mice = assay: CFA-induced paw cold hypersensitivity (acetone-evoked paw licking); type: in vivo; settings: mouse; 60 mg/kg p.o.; time 30′; acetone licking duration vs vehicle
Experimental: Prior to intraplantar CFA injection mice were placed individually in elevated observation chambers having wire mesh floors. Through the mesh floor a series of three applications of acetone (0.04 mL/application) was sprayed onto the bottom of the paw using a multidose syringe device. A positive response took the form of an abrupt withdrawal and licking of the paw. The cumulative duration of licking was recorded for each of the three trials which were then averaged to give the individual's response. Twenty-four hours following CFA injection acetone licking durations were markedly elevated implying a hypersensitivity to cooling. A test compound of Formula (I) was assessed for its ability to return acetone-evoked paw licking durations to pre-CFA levels (typically near zero) following systemic administration. Percent inhibition was calculated % inhibition=[1−(treatment licking duration/vehicle licking duration)]×100.

Male Sprague-Dawley rats = assay: Cold pressor test in anesthetized rat; type: in vivo; settings: 6 mg/kg i.v., time 10′, mean arterial pressure change on forelimb ice
Experimental: Compounds of Formula (I) can be tested in animals and humans for their ability to mitigate cardiovascular pressor responses evoked by cold exposure. The clinical cold pressor test assesses changes in blood pressure (BP) and cold pain perception during a 2-3 minute immersion of one hand into ice water. This test may be utilized to characterize analgesic compounds (Koltzenberg M et al. Pain. 2006, 126(1-3): 165-74) and to assess cold hypersensitivity (Desmeules J A et al. Arthritis Rheum. 2003, 48(5): 1420-9). A compound of Formula (I) was studied in an anesthetized rat cold pressor paradigm to determine whether TRPM8 antagonism would interfere with the blood pressure pressor response to cold stimulation of the forepaws. Male Sprague-Dawley rats (300-450 g) anesthetized with sodium pentobarbital were instrumented with a jugular catheter and an indwelling carotid artery pressure transducer. Vehicle (10% Solutol in water) or test compound was infused (1 mL/kg) over one minute through the intravenous catheter. […] Percent changes in mean arterial pressure in response to this cold stimulus were calculated for vehicle and test compound pretreatments. Percent inhibition attributed to treatment with test compound was then determined using the following formula: % Inhibition=[1−(cold evoked % change in BP post-test compound/cold evoked % change in BP post-vehicle)]×100.

| SMILES | ED50 (Male Sprague Dawley rats; po) | % Inhibition (Male Sprague Dawley rats; 10 mg/kg p.o.) | % Inhibition (Male Sprague Dawley rats; 30 mg/kg p.o.) | % Inhibition (Male Sprague Dawley rats; 100 mg/kg p.o.) | inhibition in vivo at 30 mg/kg (Sprague-Dawley rats; time 1 h) | inhibition in vivo at 30 mg/kg (Sprague-Dawley rats; time 2 h (printed 2 h or 2)) | ED50 (Sprague-Dawley rats; p.o., read-out: ED50) | IC50 (rat TRPM8) | IC50 (human TRPM8) | % I (mice) | % I (inhibition of cold-induced pressor response) (Male Sprague-Dawley rats) |
| --- | --- | --- | --- | --- | --- | --- | --- | --- | --- | --- | --- |
| CC(C)OP(=O)(OC(C)C)[C@@H](Cc1ccc(F)c(F)c1)c1sc2ccccc2c1Br [Cpd 234, (S)-[1-(3-Bromo-benzo[b]thiophen-2-yl)-2-(3,4-difluoro-phenyl)-ethyl]-phosphonic acid diisopropyl ester] | 24.3 mg/kg | 14.2% | 68.0% | 92.9% | 75% | 56% | 6.6 mg/kg | 0.053 nM | 0.054 nM | – | – |
| CC(C)OP(=O)(OC(C)C)[C@@H](Cc1ccc(F)c(C(F)(F)F)c1)c1sc2ccccc2c1Br [Cpd 242, (S)-[1-(3-Bromo-benzo[b]thiophen-2-yl)-2-(4-fluoro-3-trifluoromethyl-phenyl)-ethyl]-phosphonic acid diisopropyl ester] | – | – | – | – | – | – | – | 0.056 nM | 0.049 nM | 84% | 54% |
